Reference: patent publication US10086039B2, “Lamin A, an activator of longevity/anti-aging SIRT1 protein” (THE UNIVERSITY OF HONG KONG, priority 2012, dated 2018)
Each block holds one molecule with its values, some of them ahead of it.

Experiments:
Zmpste24−/− HSCs = assay: ROS level in freshly isolated HSCs (DCF-DA, FACS); assay type: in vivo, mouse; conditions: NAC 1 mg/ml in drinking water; elevated in Zmpste24−/− HSCs
Description: (§1) Zmpste24^−/− mice have been described previously (Pendas et al., 2002). Mouse experimentation was performed in accordance with the guidelines of the Committee on the Use of Live Animals in Teaching and Research (CULATR) at the University of Hong Kong. New-born Zmpste24^−/− mice and wild-type controls were fed with resveratrol (20 μg/ml) or N-acetyl Cysteine (1 mg/ml) in drinking water. The survival of resveratrol-treated, NAC-treated, or vehicle-treated Zmpste24^−/− mice was recorded and their body weight was monitored weekly. The trabecular bone organization and bone mineral density were determined by micro-CT. The survival rate was analyzed by Kaplan-Meier method and statistical comparison was performed by Log-rank (Mantel-Cox) Test.
To purify HSCs, red blood cells were lysed using NH4Cl before surface-marker staining, and HSCs were then sorted with a BD FACSVantage SE. Sorted HSCs were incubated with 5 μM DCF-DA at 37° C. for 30 min and analyzed by FACS at 488-nm excitation and 525-nm emission to determine the ROS level.

Zmpste24−/− mice [1] = assay: BMSC colony-forming efficiency after in vivo treatment of Zmpste24−/− mice; parameters: species or system mouse; conditions: NAC 1 mg/ml in drinking water
Description: as §1
Bone marrow stromal cells were isolated and cultured according to modified protocol (Enumeration and Expansion of Mouse Mesenchymal Progenitor Cells Using MESENCUILT®, Stemcell Technologies, Canada). Briefly, bone marrow cells were flushed out from femurs and tibias with α-MEM (Invitrogen, Carlsbad, Calif., USA) supplemented with 20% FBS, and plated in petri dishes. Non-adherent cells were removed on day 3 and medium was replaced every 3 days. […] Colonies containing more than 50 cells were counted. BMSC colony forming efficiency was calculated as number of colonies formed by […] bone marrow nucleated cells. […]

Zmpste24−/− mice [2] = assay: HSC population in bone marrow of treated Zmpste24−/− mice (FACS); assay type: in vivo, mouse; conditions: NAC 1 mg/ml in drinking water
Description: as §1, with “Zmpste24^-/-” for “Zmpste24^−/−”, “([…]” for “(Pendas”, “Test. To analyze hematopoietic stem cells, mononucleated cells were collected by flushing femurs and tibias with staining medium (HBSS supplemented with 2% FBS) and stained with biotin-coupled lineage markers, Biotin-Flt3, PE-Sca-1, APC-c-Kit, and then SAv-PerCP. FACS profile analyses were performed using a BD FACSCalibur.” for “Test.”

Zmpste24−/− mice [3] = assay: Survival and body weight of Zmpste24−/− mice treated via drinking water; assay type: in vivo, mouse; conditions: NAC 1 mg/ml in drinking water
Description: as §1
Briefly, resveratrol was supplemented at a concentration of 20 μg/ml in drinking water. Four months after treatment, BMSCs were collected for examination and comparison between resveratrol-treated and vehicle-treated Zmpste24^−/− mice.

SIRT1 [4] = molecular target: T1, SIRT1 (Homo sapiens, UniProt Q96EB6); conditions: Beher 2009; Dai 2010; Pacholec 2010; cited from earlier work
T1 sequence (Q96EB6 1-747): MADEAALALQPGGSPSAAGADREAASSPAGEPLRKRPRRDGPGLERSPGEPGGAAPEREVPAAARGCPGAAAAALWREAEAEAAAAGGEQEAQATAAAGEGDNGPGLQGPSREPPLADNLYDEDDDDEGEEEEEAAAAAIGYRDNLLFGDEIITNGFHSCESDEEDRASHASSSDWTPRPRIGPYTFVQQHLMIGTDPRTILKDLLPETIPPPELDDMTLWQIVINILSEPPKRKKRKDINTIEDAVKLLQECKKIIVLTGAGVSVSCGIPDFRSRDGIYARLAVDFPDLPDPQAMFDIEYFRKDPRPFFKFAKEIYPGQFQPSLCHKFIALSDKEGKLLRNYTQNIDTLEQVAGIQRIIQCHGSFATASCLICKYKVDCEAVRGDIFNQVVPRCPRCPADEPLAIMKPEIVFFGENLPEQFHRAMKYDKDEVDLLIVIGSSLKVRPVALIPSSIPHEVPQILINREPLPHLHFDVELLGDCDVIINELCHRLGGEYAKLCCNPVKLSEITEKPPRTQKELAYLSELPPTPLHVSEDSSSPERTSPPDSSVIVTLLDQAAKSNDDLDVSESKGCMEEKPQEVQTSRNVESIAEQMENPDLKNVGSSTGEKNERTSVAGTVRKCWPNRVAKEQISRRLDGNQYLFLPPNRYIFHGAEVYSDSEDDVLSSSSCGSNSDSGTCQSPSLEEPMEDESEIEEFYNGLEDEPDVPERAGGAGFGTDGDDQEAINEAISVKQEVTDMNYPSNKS

SIRT1 [5] = molecular target: T1, SIRT1; assay: BIOMOL SIRT1 Fluorimetric Drug Discovery Kit (BSDK) deacetylase assay on fluorophore-conjugated acetyl p53 peptide; assay type: biochemical; parameters: purchased Biomol (Hamburg, Germany)
Description: (§2) SIRT1 deacetylation assay on fluorophore-conjugated synthetic p53 peptide was performed with SIRT1 Fluorimetric Drug Discovery Kit (Biomol, Hamburg, Germany) according to the manufactory's instruction. Cells were fractionated as described above except that protease inhibitors were NOT included and the nuclear matrix fraction was suspended into the assay buffer provided by the supplier. Different cell fractions or recombinant human lamin A (rhLamin A, Diatheva, Italy) were added in the reaction mix of SIRT1 Fluorimetric Drug Discovery Kit, incubated for 20 min at 37° C., and then the reaction was stopped and fluorescent signal was detected. SIRT1 deacetylase activity on native target was assayed using SIRT1 assay Kit from Sigma (USA). Constructs encoding FLAG-p53 and HA-p300 were co-transfected into HEK293 cells; FLAG-p53 was immunoprecipitated by anti-FLAG M2 Agarose (Sigma) followed by elution with FLAG peptide (Sigma). Purified acetyl FLAG-p53 was incubated with recombinant human SIRT1 (rhSIRT1) and NAD+ for 30 min at 37° C., in the presence or absence of rhLamin A or resveratrol. The acetylation level of FLAG-p53 was determined by Western blotting with pan anti acetyl lysine antibodies.
To test this hypothesis, in vitro deacetylase activity of rhSIRT1 by a BIOMOL® SIRT1 Fluorimetric Drug Discovery Kit (BSDK) was quantified in the presence or absence of NM derived from wild-type or Zmpste24−/− BMSCs.
This Example further investigates whether lamin A acts as an activator of SIRT1. In mammalian cells, lysine acetyltransferase p300 and SIRT1 mediate the acetylation and deacetylation of p53 on residue K382 (Gu and Roeder, 1997). BSDK utilizes fluorophore-conjugated acetyl p53 peptide as target (see Materials and Methods).

SIRT1 [6] = molecular target: T1, SIRT1; assay: SIRT1 deacetylation assay on native full-length acetyl FLAG-p53 (Western blotting, anti-acetyl lysine); assay type: biochemical; parameters: purchased Biomol (Hamburg, Germany)
Description: as §2
To further test the effect of rhLamin A on the native target of SIRT1, acetyl p53 was purified by anti-FLAG immunoprecipitation in HEK293 cells ectopically expressing FLAG-p53 and p300, and SIRT1 deacetylation assay was performed as described in Materials and Methods.

[7] = molecular target: T2, rhSIRT1 binding to rhLamin A (Homo sapiens, UniProt Q96EB6); assay: Pull-down of rhSIRT1 with rhLamin A in test tube (anti-lamin A immunoprecipitation); conditions: in a test tube
T2 construct: purchased Diatheva, Italy (rhLamin A)
T2 sequence (Q96EB6 1-747): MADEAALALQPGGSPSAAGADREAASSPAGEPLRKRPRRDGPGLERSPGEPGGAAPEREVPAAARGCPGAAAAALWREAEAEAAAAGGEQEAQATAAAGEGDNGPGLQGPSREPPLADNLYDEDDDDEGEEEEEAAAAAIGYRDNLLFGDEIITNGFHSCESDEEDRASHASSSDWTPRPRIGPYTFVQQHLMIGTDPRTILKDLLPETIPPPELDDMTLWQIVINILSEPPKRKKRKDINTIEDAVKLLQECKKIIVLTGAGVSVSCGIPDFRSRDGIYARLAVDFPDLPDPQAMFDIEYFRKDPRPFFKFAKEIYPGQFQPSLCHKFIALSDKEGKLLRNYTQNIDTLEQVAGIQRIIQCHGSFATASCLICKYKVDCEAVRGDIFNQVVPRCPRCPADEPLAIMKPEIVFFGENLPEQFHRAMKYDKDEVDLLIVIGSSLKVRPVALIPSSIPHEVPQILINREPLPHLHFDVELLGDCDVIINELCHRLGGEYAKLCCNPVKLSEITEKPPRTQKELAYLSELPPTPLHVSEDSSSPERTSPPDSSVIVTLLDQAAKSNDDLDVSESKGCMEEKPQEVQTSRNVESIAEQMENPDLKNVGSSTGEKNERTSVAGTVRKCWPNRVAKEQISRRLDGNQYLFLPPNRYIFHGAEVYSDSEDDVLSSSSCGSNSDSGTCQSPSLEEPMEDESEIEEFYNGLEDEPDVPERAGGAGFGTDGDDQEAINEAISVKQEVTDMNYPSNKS
T2 sequence (P02545 1-664 partner): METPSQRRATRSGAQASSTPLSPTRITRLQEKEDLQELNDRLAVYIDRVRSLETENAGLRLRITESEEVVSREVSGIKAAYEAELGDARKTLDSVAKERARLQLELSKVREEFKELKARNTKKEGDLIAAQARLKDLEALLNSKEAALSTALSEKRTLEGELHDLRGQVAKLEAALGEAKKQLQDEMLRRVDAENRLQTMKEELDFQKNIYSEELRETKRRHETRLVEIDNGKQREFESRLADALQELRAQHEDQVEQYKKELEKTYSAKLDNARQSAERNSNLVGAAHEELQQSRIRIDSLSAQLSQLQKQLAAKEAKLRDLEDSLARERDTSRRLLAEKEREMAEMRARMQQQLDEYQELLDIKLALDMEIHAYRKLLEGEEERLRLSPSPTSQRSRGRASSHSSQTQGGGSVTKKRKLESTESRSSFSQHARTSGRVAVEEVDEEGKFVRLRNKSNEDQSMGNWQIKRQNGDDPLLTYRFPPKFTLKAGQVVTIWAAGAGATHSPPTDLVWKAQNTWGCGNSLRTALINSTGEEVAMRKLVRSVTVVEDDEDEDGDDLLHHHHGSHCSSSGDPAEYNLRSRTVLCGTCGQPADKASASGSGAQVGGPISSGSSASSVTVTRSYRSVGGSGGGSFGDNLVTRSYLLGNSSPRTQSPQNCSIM
Description: For co-immunoprecipitation, cells were lysed into pre-chilled RIPA buffer containing 300 mM or 500 mM NaCl and protease inhibitors. Primary antibodies or appropriate control IgGs were added to the lysate and incubated for 2 h on a rocking platform at 4° C. before Agarose beads were added and incubated O/N. The beads were washed twice with RIPA buffer, resuspended into Laemmli buffer and boiled, and protein suspension was collected by centrifugation and stored for further analysis.
Consistently, ectopic EGFP-SIRT1 and DsRed-lamin A co-existed in the nuclear interior (FIG. 1D). This interaction seems specific to nuclear SIRT1 as neither cytoplasmic SIRT1 nor mitochondrial SIRT5 was detected in the anti GFP-lamin A immunoprecipitates (FIG. 6C). In addition, SIRT1 physically interacts with lamin A as recombinant human SIRT1 (rhSIRT1) was pulled down by recombinant human lamin A (rhLamin A) in a test tube (FIG. 1E).

Molecule: CC(=O)N[C@@H](CS)C(=O)O [N-acetyl Cysteine]
ROS level in HSCs (Zmpste24−/− HSCs): rescued ROS level
decline in BMSCs (Zmpste24−/− mice [1]): rescued
decline in HSCs (Zmpste24−/− mice [2]): rescued
lifespan (Zmpste24−/− mice [3]): extended lifespan to a similar extent as resveratrol did

Molecule: O=C(Nc1ccccc1-c1cn2c(CN3CCNCC3)csc2n1)c1cnc2ccccc2n1 [SRT1720]
SIRT1 activation towards full-length native target proteins, including p53 and PGC-1α (SIRT1 [4]): do not confer any SIRT1 activation

Continued, in another order:

Lamin A-stimulated SIRT1 deacetylase activity (SIRT1 [5]; SIRT1 inhibitor added): completely abolished
Molecule: Cc1ccc(C(=O)Nc2ccc(S(=O)(=O)O)c3cc(S(=O)(=O)O)cc(S(=O)(=O)O)c23)cc1NC(=O)c1cccc(NC(=O)Nc2cccc(C(=O)Nc3cc(C(=O)Nc4ccc(S(=O)(=O)O)c5cc(S(=O)(=O)O)cc(S(=O)(=O)O)c45)ccc3C)c2)c1 [Suramin]

activating potential on SIRT1 towards fluorophore-conjugated synthetic peptide (Ac-Arg-His-Lys-LysAc-AMC) (SIRT1 [5]; compared with lamin A): much higher activating potential
activating potential on SIRT1 towards full-length acetylated FLAG-p53 protein (SIRT1 [6]; compared with lamin A): much higher activating potential
B1: LA-80: synthetic peptide of carboxyl 80 aa of lamin A (peptide)
peptide: GSHCSSSGDPAEYNLRSRTVLCGTCGQPADKASASGSGAQVGGPISSGSSASSVTVTRSYRSVGGSGGGSFGDNLVTRSY

decrease in FLAG-p53 acetylation level (SIRT1 [6]; rhLamin A-rhSIRT1 complex compared with rhSIRT1 only): around 20%
rhSIRT1 pulled down by rhLamin A [7]: pulled down
B2: rhLamin A: recombinant human lamin A (rhLamin A, Diatheva, Italy) (protein, listed as Homo sapiens)
chain: METPSQRRATRSGAQASSTPLSPTRITRLQEKEDLQELNDRLAVYIDRVRSLETENAGLRLRITESEEVVSREVSGIKAAYEAELGDARKTLDSVAKERARLQLELSKVREEFKELKARNTKKEGDLIAAQARLKDLEALLNSKEAALSTALSEKRTLEGELHDLRGQVAKLEAALGEAKKQLQDEMLRRVDAENRLQTMKEELDFQKNIYSEELRETKRRHETRLVEIDNGKQREFESRLADALQELRAQHEDQVEQYKKELEKTYSAKLDNARQSAERNSNLVGAAHEELQQSRIRIDSLSAQLSQLQKQLAAKEAKLRDLEDSLARERDTSRRLLAEKEREMAEMRARMQQQLDEYQELLDIKLALDMEIHAYRKLLEGEEERLRLSPSPTSQRSRGRASSHSSQTQGGGSVTKKRKLESTESRSSFSQHARTSGRVAVEEVDEEGKFVRLRNKSNEDQSMGNWQIKRQNGDDPLLTYRFPPKFTLKAGQVVTIWAAGAGATHSPPTDLVWKAQNTWGCGNSLRTALINSTGEEVAMRKLVRSVTVVEDDEDEDGDDLLHHHHGSHCSSSGDPAEYNLRSRTVLCGTCGQPADKASASGSGAQVGGPISSGSSASSVTVTRSYRSVGGSGGGSFGDNLVTRSYLLGNSSPRTQSPQNCSIM
deacetylase activity of rhSIRT1 on acetyl p53 peptide (SIRT1 [5]; in the presence of rhLamin A, molar ratio rhLamin A to rhSIRT1 0.5, 1.0, 2.0, 4.0): increased in a dose-dependent manner
